According to patent publication US8916573B2, “Quinazoline-2,4-dione derivatives” (Actelion Pharmaceuticals Ltd., priority 2011, dated 2014):
In brackets after ≈: the same amount, converted by molar mass.

Each compound was assayed on S. aureus 29213 (assay: Bacterial growth minimal inhibitory concentrations (microdilution, cation-adjusted Mueller-Hinton Broth, CLSI M7-A7)). Settings: Staphylococcus aureus, 29213; microdilution in cation-adjusted Mueller-Hinton Broth.
Type: cell-based
Protocol: Bacterial Growth Minimal Inhibitory Concentrations: Minimal inhibitory concentrations (MICs; mg/l) were determined in cation-adjusted MuellerHinton Broth by a microdilution method following the description given in “Methods for Dilution Antimicrobial Susceptibility Tests for Bacteria that Grow Aerobically”, Approved standard, 7th ed., Clinical and Laboratory Standards Institute (CLSI) Document M7-A7, Wayne, Pa., USA, 2006. Typical antibacterial test results are given in Table 1 hereafter (MIC in mg/l).

SMILES | MIC
C=Cc1ccc2c(=O)n(CCC[C@@H]3CN(c4ccc5c(c4)NC(=O)CS5)C(=O)O3)c(=O)n(C)c2c1 [Example 47, 1-methyl-3-{3-[(R)-2-oxo-3-(3-oxo-3,4-dihydro-2H-benzo[1,4]-thiazin-6-yl)-oxazolidin-5-yl]-propyl}-7-vinyl-1H-quinazoline-2,4-dione] | 0.063 µg/mL (≈ 0.128 µM)
Cn1c(=O)n(CCCC[C@@H]2CN(c3ccc4c(n3)NC(=O)CS4)C(=O)O2)c(=O)c2ccccc21 [Example 51, 1-methyl-3-{4-[(R)-2-oxo-3-(3-oxo-3,4-dihydro-2H-pyrido[3,2-b][1,4]thiazin-6-yl)-oxazolidin-5-yl]-butyl}-1H-quinazoline-2,4-dione] | ≤ 0.016 µg/mL
Cn1c(=O)n(CCCC[C@@H]2CN(c3ccc4c(n3)NC(=O)CO4)C(=O)O2)c(=O)c2ccccc21 [Example 52, 1-methyl-3-{4-[(R)-2-oxo-3-(3-oxo-3,4-dihydro-2H-pyrido[3,2-b][1,4]oxazin-6-yl)-oxazolidin-5-yl]-butyl}-1H-quinazoline-2,4-dione] | 0.063 µg/mL (≈ 0.135 µM)
O=C1CSc2ccc(N3C[C@@H](CNCCn4c(=O)[nH]c5ccccc5c4=O)OC3=O)nc2N1 [Example 53, 3-(2-{[(R)-2-oxo-3-(3-oxo-3,4-dihydro-2H-pyrido[3,2-b][1,4]thiazin-6-yl)-oxazolidin-5-ylmethyl]-amino}-ethyl)-1H-quinazoline-2,4-dione] | 0.5 µg/mL (≈ 1.07 µM)
O=C1CSc2ccc(N3C[C@@H](CNCCn4c(=O)[nH]c5ccccc5c4=O)OC3=O)cc2N1 [Example 54, 3-(2-{[(R)-2-oxo-3-(3-oxo-3,4-dihydro-2H-benzo[1,4]thiazin-6-yl)-oxazolidin-5-ylmethyl]-amino}-ethyl)-1H-quinazoline-2,4-dione] | 1 µg/mL (≈ 2.14 µM)
Cn1c(=O)n(CCNC[C@@H]2CN(c3ccc4c(n3)NC(=O)CS4)C(=O)O2)c(=O)c2ccccc21.O=CO [Example 55, 1-methyl-3-(2-{[(R)-2-oxo-3-(3-oxo-3,4-dihydro-2H-pyrido[3,2-b][1,4]thiazin-6-yl)-oxazolidin-5-ylmethyl]-amino}-ethyl)-1H-quinazoline-2,4-dione formate salt] | 0.031 µg/mL
Cn1c(=O)n(CCNC[C@@H]2CN(c3ccc4c(c3)NC(=O)CS4)C(=O)O2)c(=O)c2ccccc21 [Example 56, 1-methyl-3-(2-{[(R)-2-oxo-3-(3-oxo-3,4-dihydro-2H-benzo[1,4]thiazin-6-yl)-oxazolidin-5-ylmethyl]-amino}-ethyl)-1H-quinazoline-2,4-dione] | 0.125 µg/mL (≈ 0.26 µM)
Cc1cccc2c1c(=O)n(CCNC[C@@H]1CN(c3ccc4c(c3)NC(=O)CS4)C(=O)O1)c(=O)n2C [Example 57, 1,5-dimethyl-3-(2-{[(R)-2-oxo-3-(3-oxo-3,4-dihydro-2H-benzo[1,4]thiazin-6-yl)-oxazolidin-5-ylmethyl]-amino}-ethyl)-1H-quinazoline-2,4-dione] | ≤ 0.016 µg/mL
Cc1cccc2c1c(=O)n(CCNC[C@H]1CN(c3ccc4c(n3)NC(=O)CS4)C(=O)O1)c(=O)n2C [Example 58, 1,5-dimethyl-3-(2-{[(S)-2-oxo-3-(3-oxo-3,4-dihydro-2H-pyrido[3,2-b][1,4]thiazin-6-yl)-oxazolidin-5-ylmethyl]-amino}-ethyl)-1H-quinazoline-2,4-dione] | ≤ 0.016 µg/mL
Cc1cccc2[nH]c(=O)n(CCNC[C@@H]3CN(c4ccc5c(c4)NC(=O)CS5)C(=O)O3)c(=O)c12 [Example 59, 5-methyl-3-(2-{[(R)-2-oxo-3-(3-oxo-3,4-dihydro-2H-benzo[1,4]thiazin-6-yl)-oxazolidin-5-ylmethyl]-amino}-ethyl)-1H-quinazoline-2,4-dione] | 0.25 µg/mL (≈ 0.519 µM)
Cc1cccc2c(=O)n(CCNC[C@@H]3CN(c4ccc5c(c4)NC(=O)CS5)C(=O)O3)c(=O)[nH]c12 [Example 60, 8-methyl-3-(2-{[(R)-2-oxo-3-(3-oxo-3,4-dihydro-2H-benzo[1,4]thiazin-6-yl)-oxazolidin-5-ylmethyl]-amino}-ethyl)-1H-quinazoline-2,4-dione] | 0.25 µg/mL (≈ 0.519 µM)
Cn1c(=O)n(CCNC[C@@H]2CN(c3ccc4c(c3)NC(=O)CS4)C(=O)O2)c(=O)c2cccc(Cl)c21 [Example 61, 8-chloro-1-methyl-3-(2-{[(R)-2-oxo-3-(3-oxo-3,4-dihydro-2H-benzo[1,4]thiazin-6-yl)-oxazolidin-5-ylmethyl]-amino}-ethyl)-1H-quinazoline-2,4-dione] | ≤ 0.016 µg/mL
Cn1c(=O)n(CCNC[C@H]2CN(c3ccc4c(n3)NC(=O)CS4)C(=O)O2)c(=O)c2cccc(Cl)c21 [Example 62, 8-chloro-1-methyl-3-(2-{[(S)-2-oxo-3-(3-oxo-3,4-dihydro-2H-pyrido[3,2-b][1,4]thiazin-6-yl)-oxazolidin-5-ylmethyl]-amino}-ethyl)-1H-quinazoline-2,4-dione] | ≤ 0.016 µg/mL
O=C1CSc2ccc(N3C[C@@H](CNCCn4c(=O)[nH]c5c(Cl)cccc5c4=O)OC3=O)cc2N1 [Example 64, 8-chloro-3-(2-{[(R)-2-oxo-3-(3-oxo-3,4-dihydro-2H-benzo[1,4]thiazin-6-yl)-oxazolidin-5-ylmethyl]-amino}-ethyl)-1H-quinazoline-2,4-dione] | 0.25 µg/mL (≈ 0.498 µM)
COC(=O)/C=C/c1ccc2c(=O)n(CCNC[C@H]3CN(c4ccc5c(c4)NC(=O)CS5)C(=O)O3)c(=O)n(C)c2c1 [Example 65, (E)-3-[1-methyl-2,4-dioxo-3-(2-{[(S)-2-oxo-3-(3-oxo-3,4-dihydro-2H-benzo[1,4]thiazin-6-yl)-oxazolidin-5-ylmethyl]-amino}-ethyl)-1,2,3,4-tetrahydro-quinazolin-7-yl]-acrylic acid methyl ester] | 0.125 µg/mL (≈ 0.221 µM)
O=C1CSc2ccc(N3C[C@H](CNCCn4c(=O)c5cccc6c5n(c4=O)CCC6)OC3=O)nc2N1 [Example 67, 2-(2-{[(S)-2-oxo-3-(3-oxo-3,4-dihydro-2H-pyrido[3,2-b][1,4]thiazin-6-yl)-oxazolidin-5-ylmethyl]-amino}-ethyl)-6,7-dihydro-5H-pyrido[3,2,1-ij]quinazoline-1,3-dione] | ≤ 0.016 µg/mL
CC(=O)N(CCn1c(=O)c2ccccc2n(C)c1=O)C[C@@H]1CN(c2ccc3c(n2)NC(=O)CS3)C(=O)O1 [Example 68, N-[2-(1-methyl-2,4-dioxo-1,4-dihydro-2H-quinazolin-3-yl)-ethyl]-N-[(R)-2-oxo-3-(3-oxo-3,4-dihydro-2H-pyrido[3,2-b][1,4]thiazin-6-yl)-oxazolidin-5-ylmethyl]-acetamide] | 0.25 µg/mL (≈ 0.477 µM)
Cn1c(=O)n(CCNC[C@H]2CN(c3ccc4c(n3)NC(=O)CO4)C(=O)O2)c(=O)c2cccc(Cl)c21 [Example 69, 8-chloro-1-methyl-3-(2-{[(S)-2-oxo-3-(3-oxo-3,4-dihydro-2H-pyrido[3,2-b][1,4]oxazin-6-yl)-oxazolidin-5-ylmethyl]-amino}-ethyl)-1H-quinazoline-2,4-dione] | 0.031 µg/mL (≈ 0.0619 µM)

Same assay, conditions: microdilution in cation-adjusted Mueller-Hinton Broth

SMILES | MIC for S. aureus 29213
O=C1CSc2ccc(N3C[C@@H](CNCCn4c(=O)c5cccc6c5n(c4=O)CCC6)OC3=O)cc2N1 [Example 66, 2-(2-{[(R)-2-oxo-3-(3-oxo-3,4-dihydro-2H-benzo[1,4]thiazin-6-yl)-oxazolidin-5-ylmethyl]-amino}-ethyl)-6,7-dihydro-5H-pyrido[3,2,1-#]quinazoline-1,3-dione] | 0.031 µg/mL
